# Calls of active or inactive are those of the source. No cut-off for these calls is given here.
# Tested on: Hepatocyte
# Assay: Hepatotoxicity against mouse hepatocytes at 1 uM incubated for 24 hrs by HCS analysis
# Format: functional, cell-based
# Details: not given
row,SMILES,Activity
1,CCCN1CCC(CNC(=O)c2cc(C(=O)NCCO)cc(C(=O)NCCO)c2)CC1,inactive
2,O=C(NCCO)c1cc(C(=O)NCCO)cc(C(=O)NCCN2CCOCC2)c1,inactive

# Tested on: NIH3T3
# Assay: Cytotoxicity against serum-starved mouse NIH3T3 cells transfected with TrkB assessed as cell death at 1 uM measured after 24 hrs by CellTox green dye/Hoechst staining based microscopy
# Format: toxicity
# Details: nih3t3, 24 h
row,SMILES,Activity
1,O=C(NCCO)c1cc(C(=O)NCCO)cc(C(=O)NCCO)c1,Non-Toxic
2,CCCN1CCC(CNC(=O)c2cc(C(=O)NCCO)cc(C(=O)NCCO)c2)CC1,Non-Toxic
3,O=C(NCCO)c1cc(C(=O)NCCO)cc(C(=O)NCC2CCN(CC3CCCCC3)CC2)c1,Non-Toxic

# Tested on: not listed separately
# Assay: Chromatographic hydrophobicity index of compound at pH 7.4 by HPLC analysis
# Format: physicochemical
# Details: not given
row,CHI,SMILES
1,13.8,O=C(NCCO)c1cc(C(=O)NCCO)cc(C(=O)NCCO)c1
2,19.5,CC[C@H](C)[C@H](N)C(=O)NCCNC(=O)c1cc(C(=O)NCCO)cc(C(=O)NCCO)c1.Cl
3,18.7,O=C(NCCO)c1cc(C(=O)NCCO)cc(C(=O)NCCCN2CCOCC2)c1
4,17.6,CCCN1CCC(CNC(=O)c2cc(C(=O)NCCO)cc(C(=O)NCCO)c2)CC1
5,33.4,O=C(NCCO)c1cc(C(=O)NCCO)cc(C(=O)NCC2CCN(CC3CCCCC3)CC2)c1
6,18.1,O=C(NCCO)c1cc(C(=O)NCCO)cc(C(=O)NCCN2CCOCC2)c1

# Tested on: SH-SY5Y
# Assay: Induction of neurite outgrowth in retinoid acid-treated human SH-SY5Y cells at 10 nM incubated for 2 days by fluorescence microscopy relative to retinoid acid
# Format: functional
# Details: time 2 day
row,SMILES,Activity [%]
1,O=C(NCCO)c1cc(C(=O)NCCO)cc(C(=O)NCCO)c1,120.18
2,CC[C@H](C)[C@H](N)C(=O)NCCNC(=O)c1cc(C(=O)NCCO)cc(C(=O)NCCO)c1.Cl,139.04
3,O=C(NCCO)c1cc(C(=O)NCCO)cc(C(=O)NCCCN2CCOCC2)c1,121.11
4,CCCN1CCC(CNC(=O)c2cc(C(=O)NCCO)cc(C(=O)NCCO)c2)CC1,97.67
5,O=C(NCCO)c1cc(C(=O)NCCO)cc(C(=O)NCC2CCN(CC3CCCCC3)CC2)c1,183.59
6,O=C(NCCO)c1cc(C(=O)NCCO)cc(C(=O)NCCN2CCOCC2)c1,90.19

# Target: BDNF/NT-3 growth factors receptor (Mus musculus) (UniProt P15209)
# Assay: Induction of TrkB phosphorylation transfected in mouse NIH3T3 cells at 1 uM incubated for 20 mins followed by serum deprivation for 6 hrs by Western blot analysis
# Format: cell-based
# Details: filed as activator, time 6.33 hrs
# Sequence of BDNF/NT-3 growth factors receptor (Mus musculus) (P15209 whole entry): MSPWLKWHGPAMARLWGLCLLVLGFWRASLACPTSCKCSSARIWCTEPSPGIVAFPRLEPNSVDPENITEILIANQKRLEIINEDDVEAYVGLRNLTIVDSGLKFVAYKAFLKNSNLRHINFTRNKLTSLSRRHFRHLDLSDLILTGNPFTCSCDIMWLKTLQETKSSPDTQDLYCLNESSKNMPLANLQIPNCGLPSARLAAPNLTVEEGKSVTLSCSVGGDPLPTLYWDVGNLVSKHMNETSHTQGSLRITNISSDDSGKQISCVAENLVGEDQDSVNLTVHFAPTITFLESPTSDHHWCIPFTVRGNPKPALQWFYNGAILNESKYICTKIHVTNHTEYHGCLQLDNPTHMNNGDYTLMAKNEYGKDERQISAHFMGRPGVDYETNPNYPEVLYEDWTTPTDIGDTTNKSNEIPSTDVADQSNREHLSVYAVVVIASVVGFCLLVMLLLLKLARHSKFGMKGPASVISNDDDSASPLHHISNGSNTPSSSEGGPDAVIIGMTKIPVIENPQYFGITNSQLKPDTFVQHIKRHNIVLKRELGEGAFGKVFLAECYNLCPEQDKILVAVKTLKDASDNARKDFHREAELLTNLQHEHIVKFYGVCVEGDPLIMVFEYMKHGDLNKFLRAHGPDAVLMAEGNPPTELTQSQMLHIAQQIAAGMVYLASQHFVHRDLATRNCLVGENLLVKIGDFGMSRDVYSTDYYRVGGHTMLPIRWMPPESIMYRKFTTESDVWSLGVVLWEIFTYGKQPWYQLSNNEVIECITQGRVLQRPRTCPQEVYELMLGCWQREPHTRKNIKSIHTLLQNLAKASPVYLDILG
row,Activity,SMILES
1,Active,O=C(NCCO)c1cc(C(=O)NCCO)cc(C(=O)NCCO)c1
2,Active,CCCN1CCC(CNC(=O)c2cc(C(=O)NCCO)cc(C(=O)NCCO)c2)CC1
3,Active,O=C(NCCO)c1cc(C(=O)NCCO)cc(C(=O)NCC2CCN(CC3CCCCC3)CC2)c1

# Tested on: Cortical neurone
# Assay: Neurotoxicity against Sprague-Dawley rat primary cortical neurons at 10 uM incubated for 24 hrs by HCS analysis
# Format: functional, cell-based
# Details: not given
row,SMILES,Activity
1,O=C(NCCO)c1cc(C(=O)NCCO)cc(C(=O)NCCO)c1,inactive
2,CC[C@H](C)[C@H](N)C(=O)NCCNC(=O)c1cc(C(=O)NCCO)cc(C(=O)NCCO)c1.Cl,inactive
3,CCCN1CCC(CNC(=O)c2cc(C(=O)NCCO)cc(C(=O)NCCO)c2)CC1,inactive

# Target: BDNF/NT-3 growth factors receptor (Mus musculus) (UniProt P15209)
# Assay: Induction of TrkB phosphorylation in mouse primary cortical astrocytes assessed as Akt phosphorylation at 1 uM incubated for 20 mins followed by serum deprivation for 6 hrs by Western blot analysis
# Format: cell-based
# Details: Cortex, filed as activator, time 6.33 hrs
row,Activity,SMILES
1,Active,O=C(NCCO)c1cc(C(=O)NCCO)cc(C(=O)NCCO)c1
2,Active,O=C(NCCO)c1cc(C(=O)NCCO)cc(C(=O)NCC2CCN(CC3CCCCC3)CC2)c1
3,Active,O=C(NCCO)c1cc(C(=O)NCCO)cc(C(=O)NCCN2CCOCC2)c1

# Tested on: SH-SY5Y
# Assay: Induction of neurite outgrowth in retinoid acid-treated human SH-SY5Y cells at 1000 nM incubated for 2 days by fluorescence microscopy relative to retinoid acid
# Format: functional
# Details: time 2 day
row,SMILES,Activity [%]
1,O=C(NCCO)c1cc(C(=O)NCCO)cc(C(=O)NCCO)c1,113.86
2,CC[C@H](C)[C@H](N)C(=O)NCCNC(=O)c1cc(C(=O)NCCO)cc(C(=O)NCCO)c1.Cl,143.82
3,O=C(NCCO)c1cc(C(=O)NCCO)cc(C(=O)NCCCN2CCOCC2)c1,122.77
4,CCCN1CCC(CNC(=O)c2cc(C(=O)NCCO)cc(C(=O)NCCO)c2)CC1,104.04
5,O=C(NCCO)c1cc(C(=O)NCCO)cc(C(=O)NCC2CCN(CC3CCCCC3)CC2)c1,113.54
6,O=C(NCCO)c1cc(C(=O)NCCO)cc(C(=O)NCCN2CCOCC2)c1,114.91

# Tested on: Cortical neurone
# Assay: Neurotoxicity against Sprague-Dawley rat primary cortical neurons at 100 uM incubated for 24 hrs by HCS analysis
# Format: functional, cell-based
# Details: not given
row,SMILES,Activity
1,O=C(NCCO)c1cc(C(=O)NCCO)cc(C(=O)NCCO)c1,inactive
2,CCCN1CCC(CNC(=O)c2cc(C(=O)NCCO)cc(C(=O)NCCO)c2)CC1,inactive

# Tested on: SH-SY5Y
# Assay: Induction of neurite outgrowth in retinoid acid-treated human SH-SY5Y cells at 100 nM incubated for 2 days by fluorescence microscopy relative to retinoid acid
# Format: functional
# Details: time 2 day
row,SMILES,Activity [%]
1,O=C(NCCO)c1cc(C(=O)NCCO)cc(C(=O)NCCO)c1,124.7
2,CC[C@H](C)[C@H](N)C(=O)NCCNC(=O)c1cc(C(=O)NCCO)cc(C(=O)NCCO)c1.Cl,158.93
3,O=C(NCCO)c1cc(C(=O)NCCO)cc(C(=O)NCCCN2CCOCC2)c1,127.21
4,CCCN1CCC(CNC(=O)c2cc(C(=O)NCCO)cc(C(=O)NCCO)c2)CC1,102.23
5,O=C(NCCO)c1cc(C(=O)NCCO)cc(C(=O)NCC2CCN(CC3CCCCC3)CC2)c1,181.13
6,O=C(NCCO)c1cc(C(=O)NCCO)cc(C(=O)NCCN2CCOCC2)c1,107.68

# Tested on: Primary spinal motor neuron
# Assay: (§1) Neuroprotective activity against glutamate-treated Wistar rat primary spinal motor neurons assessed as neuronal survival pretreated for 1 hr followed by glutamate treatment for 20 mins and subsequent washout of compound and glutamate and re-treatment of compound for 48 hrs by imaging analysis
# Format: functional, cell-based
# Details: dose 0.5-1000 nM, time 49.33 hrs
row,SMILES,Activity
1,O=C(NCCO)c1cc(C(=O)NCCO)cc(C(=O)NCC2CCN(CC3CCCCC3)CC2)c1,Dose-Dependent Effect

# Tested on: Primary spinal motor neuron
# Assay: as §1, with “increase in neurite network” for “neuronal survival”
# Format: functional, cell-based
# Details: dose 0.5-1000 nM, time 49.33 hrs
row,SMILES,Activity
1,O=C(NCCO)c1cc(C(=O)NCCO)cc(C(=O)NCC2CCN(CC3CCCCC3)CC2)c1,Dose-Dependent Effect

# Tested on: not listed separately
# Assay: Chromatographic hydrophobicity index, log D of compound at pH 7.4 by HPLC analysis
# Format: physicochemical
# Details: buffer
row,chromatographic logD,SMILES
1,-0.53,O=C(NCCO)c1cc(C(=O)NCCO)cc(C(=O)NCCO)c1
2,-0.24,CC[C@H](C)[C@H](N)C(=O)NCCNC(=O)c1cc(C(=O)NCCO)cc(C(=O)NCCO)c1.Cl
3,-0.28,O=C(NCCO)c1cc(C(=O)NCCO)cc(C(=O)NCCCN2CCOCC2)c1
4,-0.34,CCCN1CCC(CNC(=O)c2cc(C(=O)NCCO)cc(C(=O)NCCO)c2)CC1
5,0.48,O=C(NCCO)c1cc(C(=O)NCCO)cc(C(=O)NCC2CCN(CC3CCCCC3)CC2)c1
6,-0.31,O=C(NCCO)c1cc(C(=O)NCCO)cc(C(=O)NCCN2CCOCC2)c1

# Tested on: Cortical neurone
# Assay: Neurotoxicity against Sprague-Dawley rat primary cortical neurons at 1 uM incubated for 24 hrs by HCS analysis
# Format: functional, cell-based
# Details: not given
row,SMILES,Activity
1,O=C(NCCO)c1cc(C(=O)NCCO)cc(C(=O)NCCO)c1,inactive
2,CC[C@H](C)[C@H](N)C(=O)NCCNC(=O)c1cc(C(=O)NCCO)cc(C(=O)NCCO)c1.Cl,inactive
3,O=C(NCCO)c1cc(C(=O)NCCO)cc(C(=O)NCCCN2CCOCC2)c1,inactive
4,CCCN1CCC(CNC(=O)c2cc(C(=O)NCCO)cc(C(=O)NCCO)c2)CC1,inactive
5,O=C(NCCO)c1cc(C(=O)NCCO)cc(C(=O)NCCN2CCOCC2)c1,inactive

# Target: BDNF/NT-3 growth factors receptor (Mus musculus) (UniProt P15209)
# Assay: Induction of TrkB phosphorylation in mouse primary cortical astrocytes at 1 uM incubated for 20 mins followed by serum deprivation for 6 hrs by Western blot analysis
# Format: cell-based
# Details: Cortex, filed as activator, time 6.33 hrs
row,Activity,SMILES
1,Active,O=C(NCCO)c1cc(C(=O)NCCO)cc(C(=O)NCCO)c1
2,Active,O=C(NCCO)c1cc(C(=O)NCCO)cc(C(=O)NCC2CCN(CC3CCCCC3)CC2)c1
3,Active,O=C(NCCO)c1cc(C(=O)NCCO)cc(C(=O)NCCN2CCOCC2)c1

# Tested on: Primary spinal motor neuron
# Assay: as §1, with “decrease in TDP43 accumulation” for “neuronal survival”
# Format: functional, cell-based
# Details: dose 0.5-1000 nM, time 49.33 hrs
row,SMILES,Activity
1,O=C(NCCO)c1cc(C(=O)NCCO)cc(C(=O)NCC2CCN(CC3CCCCC3)CC2)c1,Dose-Dependent Effect

# — ChEMBL document CHEMBL5321207, “Design, synthesis and biological characterization of novel activators of the TrkB neurotrophin receptor” (Eur J Med Chem, 2023)
